Patent US20040259192A1, “Method for cleaving the human growth hormone gh” (priority 2001, published 2004)
“Also recorded” adds a separate entry of the source. Square brackets hold non-standard residues; d marks the D form. Ends that are not written are not given here. * marks the point of attachment. Sta = CC(C)C[C@H](N)[C@@H](O)CC(=O)O; Isovaleryl = CC(C)CC(=O)*

Assays:
MMP-3 [1] = target: MMP-3 (Homo sapiens, UniProt P08254); assay: activation or inhibition of MMP-3 by substances; format: biochemical; design: inhibition (MMP-3): dose or concentration left out as unconfirmed; settings: for inhibition at 10 µM: with 10 μM
MMP-3 [2] = assay: cleavage of human GH by MMP-3, SDS-PAGE, with or without protease inhibitors; format: biochemical; settings: for influence on GH cleavage by MMP-3: inhibitor added in place of phenanthroline, concentration not given
Experimental: (§1) Human GH (SIGMA S-4776) was incubated with the recombinant catalytic domain of MMP-3 or with the activated full-length enzyme MMP-3 (EC 3.4.24.17) at a molar ratio of 50:1 at 37° C. overnight. 100 mM Tris-HCl, pH 7.5/100 mM NaCl/10 mM CaCl2/0.05% (w/v) Brij 35 served as incubation buffer. The following samples served as a control:
1. GH incubated with the same volume of buffer instead of MMP-3,
2. GH incubated with MMP-3 in the presence of 1 mM 1,10-phenanthroline (SIGMA P-9375) as MMP inhibitor.
(§2) The reaction is stopped by the addition of ¼ volume of 5 times reducing Laemmli buffer and incubation at 90° C. for 4 minutes. The samples were subsequently separated on a 15% SDS polyacrylamide gel according to a generally known method. The proteins were prepared by means of coomassie or silver staining.

[3] = tested on: Human microvascular endothelial cells (HUVEC); assay: proliferation of human microvascular endothelial cells (cell number, Coulter Counter); format: cell-based; settings: 24 hours
Experimental: Human microvascular endothelial cells (HUVEC) of the 3rd passage were kindly provided by Dr. Jurgen Salvetter (Leipzig University). These cells were prepared according to the information furnished by Norman and Karasek (49). HUVEC were used up to the 9th passage for the proliferation experiments. HUVEC were tested up to confluence in RPMI 1640 medium with additions of 10% (v/v) tested endotoxin-deficient fetal calf serum (Biochrom), 2 mM L-glutamine (GIBCO), 25 μg/ml endothelial cell growth supplement (SIGMA), 50 μg/ml streptomycin plus 50 units/ml penicillin (Life Technologies). The confluent cells were harvested by means of 5% trypsin/0.2% EDTA (BIOCHROM) at 37° C. for 5 minutes. A suspension of 10,000 cells in RPMI 1640 medium plus 2% (v/v) tested endotoxin-deficient fetal calf serum (Biochrom), 2 mM L-glutamine (GIBCO), 50 μg/ml streptomycin plus 50 units/ml penicillin (Life Technologies) were transferred to 24-well plates coated with 30 μg/ml type I collagen from calf skin (IBFB). […] The cells were washed with the same medium after 24 hours of incubation and removed using trypsin/EDTA and the cell number was determined in a Coulter Counter. […]

MMP-2 = target: T1, MMP-2 (Homo sapiens, UniProt P08253); assay: cleavage of human GH by MMP-2; format: biochemical
T1 sequence (P08253 110-660): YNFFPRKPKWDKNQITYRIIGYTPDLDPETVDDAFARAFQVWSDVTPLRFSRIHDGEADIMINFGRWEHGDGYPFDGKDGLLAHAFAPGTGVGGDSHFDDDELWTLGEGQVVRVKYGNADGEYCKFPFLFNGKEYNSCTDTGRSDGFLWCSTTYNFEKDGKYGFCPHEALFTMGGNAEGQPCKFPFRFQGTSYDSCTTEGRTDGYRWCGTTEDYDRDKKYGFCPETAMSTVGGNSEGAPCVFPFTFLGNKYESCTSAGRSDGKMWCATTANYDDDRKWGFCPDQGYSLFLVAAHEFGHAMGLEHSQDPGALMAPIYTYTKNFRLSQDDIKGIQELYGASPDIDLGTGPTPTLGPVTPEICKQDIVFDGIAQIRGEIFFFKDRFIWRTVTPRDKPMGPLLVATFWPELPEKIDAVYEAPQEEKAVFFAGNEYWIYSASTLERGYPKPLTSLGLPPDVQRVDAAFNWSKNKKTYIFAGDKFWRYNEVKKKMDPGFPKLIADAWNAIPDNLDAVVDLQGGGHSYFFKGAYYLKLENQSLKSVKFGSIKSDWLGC

MMP-8 = MMP-8 (Homo sapiens, UniProt P22894); assay: cleavage of human GH by MMP-8, SDS-PAGE; format: biochemical; settings: method of Example 2
Experimental: as §1, §2
(§3) In accordance with the method shown in Example 2, other human MMPs were also tested for checking the specificity of the GH cleavage by MMP-3.

MMP-14 = MMP-14 (Homo sapiens, UniProt P50281); assay: cleavage of human GH by MMP-14, SDS-PAGE; format: biochemical; settings: method of Example 2
Experimental: as §1, §2, §3

MMP-9 = MMP-9 (Homo sapiens, UniProt P14780); assay: cleavage of human GH by MMP-9, SDS-PAGE; format: biochemical; settings: activated MMP-9; long incubation periods, different enzyme concentrations
Experimental: It was tested in an informing preliminary test whether MMP-9 can cleave human GH in vitro. As shown in Example 2, GH was in this case incubated with activated MMP-9 and subjected to PAA gel electrophoresis. […]
as §1, §2, §3

Chain of MMP-3 (Homo sapiens, UniProt P08254) (P08254 100-477): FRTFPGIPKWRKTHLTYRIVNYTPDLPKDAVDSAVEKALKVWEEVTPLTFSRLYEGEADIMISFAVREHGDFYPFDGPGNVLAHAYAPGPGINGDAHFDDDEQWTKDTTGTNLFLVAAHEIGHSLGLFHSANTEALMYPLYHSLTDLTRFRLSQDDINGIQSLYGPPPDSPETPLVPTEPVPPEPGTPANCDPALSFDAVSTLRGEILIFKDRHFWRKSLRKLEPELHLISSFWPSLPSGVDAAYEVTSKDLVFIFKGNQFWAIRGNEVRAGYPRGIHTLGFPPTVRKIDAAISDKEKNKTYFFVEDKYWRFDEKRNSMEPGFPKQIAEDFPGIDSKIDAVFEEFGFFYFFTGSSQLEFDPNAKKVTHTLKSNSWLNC
Chain of MMP-9 (P14780 107-707 limits assumed): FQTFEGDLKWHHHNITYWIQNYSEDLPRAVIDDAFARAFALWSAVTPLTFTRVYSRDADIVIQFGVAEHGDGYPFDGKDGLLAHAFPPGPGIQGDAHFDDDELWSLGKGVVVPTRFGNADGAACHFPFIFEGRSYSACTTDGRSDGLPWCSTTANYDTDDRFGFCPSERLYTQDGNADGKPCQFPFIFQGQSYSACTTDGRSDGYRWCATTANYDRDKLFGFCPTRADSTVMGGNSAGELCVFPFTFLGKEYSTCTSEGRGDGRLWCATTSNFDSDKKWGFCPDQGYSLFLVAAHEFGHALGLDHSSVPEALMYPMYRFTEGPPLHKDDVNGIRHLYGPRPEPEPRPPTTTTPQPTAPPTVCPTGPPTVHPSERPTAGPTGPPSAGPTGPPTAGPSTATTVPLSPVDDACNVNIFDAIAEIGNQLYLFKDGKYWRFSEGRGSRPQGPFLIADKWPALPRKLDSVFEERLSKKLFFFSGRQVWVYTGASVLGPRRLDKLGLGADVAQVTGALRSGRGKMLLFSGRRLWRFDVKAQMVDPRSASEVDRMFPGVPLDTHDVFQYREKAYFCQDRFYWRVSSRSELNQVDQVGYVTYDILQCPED
Chain of MMP-8 (P22894 101-467): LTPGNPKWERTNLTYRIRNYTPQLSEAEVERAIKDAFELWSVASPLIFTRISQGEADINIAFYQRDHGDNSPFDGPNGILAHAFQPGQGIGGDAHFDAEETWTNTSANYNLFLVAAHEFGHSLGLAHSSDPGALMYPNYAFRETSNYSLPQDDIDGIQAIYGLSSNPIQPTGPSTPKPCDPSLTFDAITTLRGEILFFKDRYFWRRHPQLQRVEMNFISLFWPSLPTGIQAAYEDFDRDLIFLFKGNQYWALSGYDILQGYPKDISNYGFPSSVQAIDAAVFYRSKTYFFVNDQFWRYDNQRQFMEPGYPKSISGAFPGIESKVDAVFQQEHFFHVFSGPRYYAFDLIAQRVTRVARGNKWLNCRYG

CC1(CS)Cn2c(nc3ccccc3c2=O)S1 (racemic) [(R,S)-2-mercaptomethyl-2-methyl-2,3-dihydro-thiazolo[2,3-b]quinazoline-5-one]
inhibition (MMP-3) (MMP-3 [1]): 60%

c1cnc2c(c1)ccc1cccnc12 [phenanthroline, 1,10-phenanthroline]
GH cleavage by MMP-3 in the presence of inhibitor (MMP-3 [2]; 1 mM inhibitor, GH:MMP-3 50:1, 37° C. overnight, pH 7.5): not cleaved

O=S1(=O)NC(NCCS)=Nc2ccccc21 [3-(2′-mercaptoethylamino)-2H-1,2,4-benzothiadiazine-1,1-dioxide]
activation of MMP-3 (MMP-3 [1]): about 20%

Cn1c(=O)n(CCCS)c(=O)c2ccccc21 [3-(3-mercaptopropyl)-1-methyl-(1H,3H)quinazoline-2,4-dione]
activation of MMP-3 (MMP-3 [1]): about 20%

Isovaleryl-VV[Sta]A[Sta] [pepstatin A]
influence on GH cleavage by MMP-3 (MMP-3 [2]): no influence

bFGF: human recombinant bFGF (BIOCHROM), positive control [reference compound]
proliferation of HUVEC ([3]; 20 ng/ml): stimulates the proliferation

O=c1c2ccc(Cl)cc2nc2n1CC(CS)S2 (racemic) [(R,S)-8-chloro-2-mercaptomethyl-2,3-dihydro-thiazolo[2,3-b]quinazoline-5-one]
inhibition at 10 µM (MMP-3 [1]): 80%

CC(C)C[C@H](NC(=O)[C@H]1O[C@@H]1C(=O)O)C(=O)NCCCCN=C(N)N (relative stereo) [E-64, trans-epoxysuccinyl-L-leucylamido-(4-guanidino)butane]
influence on GH cleavage by MMP-3 (MMP-3 [2]): no influence

O=c1c2ccccc2nc2n1CC(CS)S2 (racemic) [(R,S)-2-mercaptomethyl-2,3-dihydro-thiazolo[2,3-b]quinazoline-5-one]
inhibition at 10 µM (MMP-3 [1]): 50%

GH: Human GH, 22 kDa peptide hormone composed of a single polypeptide chain (SIGMA S-4776)
proliferation of HUVEC ([3]; 40 ng/ml): marked proliferative effect
cleavage of GH by MMP-2 (MMP-2): no, or only minor, degradative effects
cleavage of GH by MMP-3 (MMP-3 [2]; molar ratio 50:1, 37° C. overnight, pH 7.5): cleaved by MMP-3 into two fragments of 16 kDa and 6 kDa; also recorded: cleaves GH into the typical 16 kDa fragment
cleavage of GH by MMP-8 (MMP-8): no degrading effect
cleavage of GH by MMP-14 (MMP-14): no degrading effect
cleavage of GH by MMP-9 (MMP-9): not possible to prove cleavage; also recorded: no degrading effect

O=c1[nH]c(=O)n(CC(S)CS)c2ccccc12 (racemic) [(R,S)-1-(2′,3′-dimercapto-prop-1′-yl)quinazoline-2,4(1H,3H)-dione]
inhibition at 4 µM (MMP-3 [1]; with 4.0 μM): 75%
